Source: patent US20240110200A1, “Recombinant AAV Vectors and Gene Therapies for Treating Brain Diseases” (City University of Hong Kong, priority 2022, published 2024)
*1 amine or outer side, *2 acyl side, *3 side chain or, on linkers, in order; H or OH if unused. Where a SMILES comes first, the peptide text is derived from it. Where no end group is shown, it is not given here. Side-chain parts run from the residue outwards. [ ]: non-standard residue; d: D form. The star is where a group is joined. NMeF = CN[C@@H](Cc1ccccc1)C(=O)O; NH(2-Me-phenyl) = Cc1ccccc1N*; Boc = CC(C)(C)OC(=O)*; CO = O=C([*:1])[*:2]; Ahx = NCCCCCC(=O)O

B1: HA2A8s (HA-ε-Ahx-ε-Ahx-CCK8s) (peptide, UniProt P06307 96-103, looked up, not shown: small tags and cut ends)
peptide: {HA tag-Ahx-Ahx}-DYMGWMDF
modifications: ends and bridges not checked; also: sulphated CCK8, site not given here
notes: Chemically synthesised; also called HA-(ε-Ahx)2-CCK8s; HA-labeled CCK8s

Key:
GPR173 [1] = target: T1, GPR173 (Homo sapiens, UniProt Q9NS66); assay: Antagonism of CCK1R/2R antagonists to GPR173; format: cell-based
Protocol: (§1) All measurements of calcium imaging are performed by EnVision 2104 Multilabel Reader (Perkin Elmer, Waltham, Massachusetts, US, https://www.perkinelmer.com, excitation: 485 nm and emission: 535 nm). […] Cells are cultured at 37° C., 5% CO2 in DMEM/F-12 medium (Thermo Fisher, Waltham, MA, US, https://www.thermofisher.cn) containing 10% FBS (Natocor-Industria Biológica) and washed with DMEM/F-12 medium once after overnight incubation.

[2] = tested on: pyramidal neurons (CCK-GABA synapses) in the AC; assay: In vitro patch-clamp recording of laser-evoked IPSC in pyramidal neurons of auditory cortex brain slices; format: cell-based, CCK-Cre mice
Protocol: In the experiments of FIGS. 2-3, a protective cutting and recovery method is adopted in preparing acute brain slices of CCK-Cre, PV-Cre, CCK-KO, and CCK1R/2R-KO mice to achieve a higher success rate for patch-clamp, as previously described in Chen, X., et al., Natl. Acad. Sci., Vol. 116, pp. 2019. Briefly, the anaesthetized mice are perfused transcardially with NMDG-aCSF (92 mM NMDG, 2.5 mM KCl, 1.25 mM NaH2PO4, 30 mM NaHCO3, 20 mM HEPES, 25 mM glucose, 2 mM thiourea, 5 mM Na-ascorbate, 3 mM Na-pyruvate, 0.5 mM CaCl2·4H2O, and 10 mM MgSO4·7H2O; pH 7.3-7.4), and the brain is extracted and cut into 300 μm-thick sections. The slices are transferred to NMDG-aCSF for 10 min at 32-34° C. to allow protective recovery and then to room-temperature HEPES-aCSF (92 mM NaCl, 2.5 mM KCl, 1.25 mM NaH2PO4, 30 mM NaHCO3, 20 mM HEPES, 25 mM glucose, 2 mM thiourea, 5 mM Na-ascorbate, 3 mM Na-pyruvate, 2 mM CaCl2·4H2O, and 2 mM MgSO4·7H2O; pH 7.3-7.4) for at least 1 h before recording.
Whole-cell recordings (with Multiclamp 700B amplifier and Digital 1440A digitizer, Molecular Devices, www.moleculardevices.com, Menlo Park, California, USA), targeting the AC of the brain slices in room-temperature aCSF (119 mM NaCl, 2.5 mM KCl, 1.25 mM NaH2PO4, 24 mM NaHCO3, 12.5 mM glucose, 2 mM CaCl2·4H2O and 2 mM MgSO4·7H2O, ˜25° C.) are performed. Patch pipettes are pulled with resistance between 3-5 MQ from borosilicate glass (WPI, World Precision Instruments; UK; httpss://www.wpiinc.com/) on a Sutter-87 puller (Sutter Instrument; CA, US, https://www.sutter.com/). The intracellular solution contains: 145 mM K-Gluconate, 10 mM HEPES, 1 mM EGTA, 2 mM Mg-ATP, 0.3 mM Na2-GTP, and 2 mM MgCl2; pH 7.3; 290-300 mOsm. Similarly, after Giga-Ohm seal formation, recordings are made and then terminated if Rs changes more than 20%. Pyramidal neurons are selected based on the pyramidal-like shape and the firing pattern of regular spiking by injecting step currents.
Laser stimulation is applied through an optical fiber placed ˜200 μm from the recording neuron using Aurora-220 (473 nm, NEWDOON, Changchun, China; http://www.newdoon.com/) to activate ChR2^+ neurons (GABAergic). In the examples, only neurons that respond to the laser pulse is recruited. HFLS (10-pulse burst at 40 Hz, repeated for 10 trials) or Low-frequency Laser Stimulation (LFLS, 1 Hz, 100 pulses) with a 15-s interval is delivered. Inhibitory postsynaptic currents (IPSCs) to the laser stimulation (1 pulse per 15 s, 5 ms in duration) under voltage-clamp recording mode (holding at −60 mV to −50 mV) are recorded for 5 min as the baseline before and for 25 min after the HFLS or LFLS.
For the normalization of recorded IPSC in the CCK-Cre, PV-Cre, CCK-KO, and CCK1R/2R-KO mice, only the patched neurons are recruited when the IPSC is greater than 35 pA.

GPR173 [3] = target: T1, GPR173; assay: Calcium imaging assay in CHO-GPR173 cell line; format: cell-based; settings: for calcium signal in CHO-GPR173 cells: after incubation with the peptide
Protocol: as §1

Flag-GPR173 = target: T2, Flag-GPR173 (Homo sapiens, UniProt Q9NS66); assay: Cell surface binding assay, HEK293T cells transfected with Flag-GPR173; settings: CCK-binding assay, FIG. 4B
T2 construct: host or cells: HEK293T
Protocol: HEK293T cells are transfected with pCDNA3.1(+)-Flag-GPCR (purchased from Public Protein/Plasmid Library, Nanjing, China, http://ppl.biogot.com; or home-made by us based on pCDNA3.1(+) backbone). The cells are incubated with HA-ε-Ahx-ε-Ahx or HA-(ε-Ahx)2-CCK8s dissolved in HHBS solution (Hank's solution including 20 mM N-2-hydroxyethylpiperazine-N′-2-ethanesulfonic acid (HEPES), pH=7.4) for 30 min at room temperature, 48 h after transfection by Lipo6000 (Beyotime Biotechnology, Shanghai, China, https://www.beyotime.com/). After three washes with HHBS, cells are fixed in 4% paraformaldehyde and 4% sucrose in PBS for 15 min at room temperature. Cells are blocked in 5% normal goat serum in PBS, and staining is performed in detergent-free conditions without cell permeabilization after three washes by PBS. Primary antibody rabbit anti-HA (CST, 3724 Boston, US, https://www.cellsignal.com), anti-GPR173 (PA5-50976, ThermoFisher, Waltham, MA, US, https://www.thermofisher.cn) and mouse anti-Flag (CST-8146, Boston, US, https://www.cellsignal.com) are used to detect HA and Flag tags. For binding assay of pCDNA3.1(+)-AcGFP-CCK1R, only rabbit anti-HAprimary antibody is used to detectHAtag. Images are captured on a Leica SP8 confocal microscope (Leica Microsystems, Danaher Corporation, US, https://www.leica-microsystems.com/). […]

[4] = target: T3, Flag-HTR1B on transfected HEK293T cells (UniProt P28222 1-390); assay: cell surface binding assay on HEK293T cells transfected with Flag-tagged GPCRs, anti-HA and anti-Flag staining, confocal
T3 construct: whole, on cells
T3 sequence (P28222 whole entry): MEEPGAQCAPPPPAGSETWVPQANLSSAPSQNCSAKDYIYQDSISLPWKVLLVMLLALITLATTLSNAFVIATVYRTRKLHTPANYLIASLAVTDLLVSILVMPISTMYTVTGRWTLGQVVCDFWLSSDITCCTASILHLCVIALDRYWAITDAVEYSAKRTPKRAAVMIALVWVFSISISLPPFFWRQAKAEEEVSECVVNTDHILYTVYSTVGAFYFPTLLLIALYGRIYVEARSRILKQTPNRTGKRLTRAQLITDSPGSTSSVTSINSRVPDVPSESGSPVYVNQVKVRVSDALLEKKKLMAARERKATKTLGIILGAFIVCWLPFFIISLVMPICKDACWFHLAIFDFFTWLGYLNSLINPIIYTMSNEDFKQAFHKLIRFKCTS
Protocol: HEK293T cells are transfected with pCDNA3.1(+)-Flag-GPCR (purchased from Public Protein/Plasmid Library, Nanjing, China, http://ppl.biogot.com; or home-made by us based on pCDNA3.1(+) backbone). […] After three washes with HHBS, cells are fixed in 4% paraformaldehyde and 4% sucrose in PBS for 15 min at room temperature. Cells are blocked in 5% normal goat serum in PBS, and staining is performed in detergent-free conditions without cell permeabilization after three washes by PBS. […] For binding assay of pCDNA3.1(+)-AcGFP-CCK1R, only rabbit anti-HAprimary antibody is used to detectHAtag. Images are captured on a Leica SP8 confocal microscope (Leica Microsystems, Danaher Corporation, US, https://www.leica-microsystems.com/). Images within each experiment are collected using identical laser-power, offset, and gain.

T1 sequence (Q9NS66 whole entry, species assumed): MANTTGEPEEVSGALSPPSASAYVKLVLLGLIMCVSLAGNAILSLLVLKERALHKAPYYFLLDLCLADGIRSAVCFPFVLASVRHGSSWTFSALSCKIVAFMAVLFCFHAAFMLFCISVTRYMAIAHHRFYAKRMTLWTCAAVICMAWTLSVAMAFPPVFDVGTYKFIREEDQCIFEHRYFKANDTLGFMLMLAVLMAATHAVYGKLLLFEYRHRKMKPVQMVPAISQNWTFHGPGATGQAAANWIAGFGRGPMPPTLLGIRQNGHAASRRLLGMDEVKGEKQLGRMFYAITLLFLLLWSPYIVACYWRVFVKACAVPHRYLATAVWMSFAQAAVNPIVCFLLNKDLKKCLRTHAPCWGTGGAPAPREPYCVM
T2 sequence (Q9NS66 whole entry): as the sequence (Q9NS66 whole entry, species assumed) above

Row | Molecule | IC50 (GPR173 [1]) | calcium signal in CHO-GPR173 cells (GPR173 [3]) | also measured
1 | CCCCCN(CCCOC)C(=O)C(CCC(=O)O)NC(=O)c1ccc(Cl)c(Cl)c1 (centres unmarked) [Loxiglumide] | 715 ± 99.4 nM |  | 
2 | Cc1cccc(NC(=O)N[C@@H]2N=C(c3ccccc3)c3ccccc3N(C)C2=O)c1 [L365,260] | 16800 nM |  | 
3 | CN1C(=O)[C@@H](NC(=O)c2cc3ccccc3[nH]2)N=C(c2ccccc2)c2ccccc21 [Devazepide] | 12.3 ± 3.41 nM |  | blockade of HFLS-induced iLTP ([2]; Devazepide 60 nM in bath solution): entirely blocks the iLTP; normalized IPSC 20-25 min after Devazepide infusion and the HFLS ([2]; Devazepide 60 nM in bath solution, baseline 100.18±1.91, HFLS alone 183.70±6.25%, n=8): 103.24±2.54%
4 | Phoenixin (DVQPPGLKVWSDPF) [PNX, Phoenixin, peptide claimed in the literature to act through GPR173] |  | no calcium signal | 
5 | CCK8s |  | strong calcium response | normalized IPSC amplitude 25-30 min after CCK8s+1 Hz ([2]; 200-nM CCK8s bath application 3 min before LFLS (1 Hz, 100 pulses), baseline 100.00±2.53, n=8 neurons): 161.84±4.38%; iLTP after CCK8s followed by LFLS ([2]; CCK8s+1 Hz group vs aCSF+1 Hz): large iLTP; binding affinity of Flag-GPR173 with CCK8s (Flag-GPR173): prominent binding affinity
6 | Cc1ccccc1NC(=O)NCCCC[C@H](NC(=O)[C@H](Cc1c[nH]c2ccccc12)NC(=O)OC(C)(C)C)C(=O)N[C@@H](CC(=O)O)C(=O)N(C)[C@@H](Cc1ccccc1)C(N)=O [A-71623] (Boc-WK([CO-NH(2-Me-phenyl)])D[NMeF]-NH2) |  |  | activation of the CHO-GPR173 cell line (GPR173 [3]; even at 100 μM): does not activate
7 | CNc1cccc(NC(=O)N[C@@H]2N=C(c3ccccn3)c3ccccc3N(CC(=O)C(C)(C)C)C2=O)c1 [YF476] | 3100 nM |  | 
8 | CCK4: CCK2R-selective agonist |  | evokes no response | 
9 | B1 |  |  | binding result [4]: no binding
